Reference: paper PMC8343220, “The selectivity of α‐adrenoceptor agonists for the human α1A, α1B, and α1D‐adrenoceptors” (Pharmacology Research & Perspectives, 2021)

Assays:
[1] = system: parental CHO cell line without any transfected receptors; test: ERK1/2‐phosphorylation, parent CHO cells without transfected receptors; format: cell-based, Chinese hamster
[2] = system: parental CHO cell line without any transfected receptors; test: Intracellular calcium mobilization, parent CHO cells without transfected receptors; format: cell-based, Chinese hamster
[3] = system: parental CHO cell line without any transfected receptors; test: Forskolin‐stimulated cAMP accumulation, parent CHO cells without transfected receptors; format: cell-based, Chinese hamster
[4] = system: parental CHO cell line without any transfected receptors; test: ^3H‐cAMP accumulation, parent CHO cells without transfected receptors; format: cell-based, Chinese hamster
human α1A‐adrenoceptor [5] = target: T1, human α1A‐adrenoceptor (Homo sapiens, UniProt P35348); test: ^3H‐prazosin whole‐cell radioligand binding, CHO‐α1A cells
T1 construct: expressed in transfected cells; host or cells: CHO-K1
T1 sequence (P35348 1-466): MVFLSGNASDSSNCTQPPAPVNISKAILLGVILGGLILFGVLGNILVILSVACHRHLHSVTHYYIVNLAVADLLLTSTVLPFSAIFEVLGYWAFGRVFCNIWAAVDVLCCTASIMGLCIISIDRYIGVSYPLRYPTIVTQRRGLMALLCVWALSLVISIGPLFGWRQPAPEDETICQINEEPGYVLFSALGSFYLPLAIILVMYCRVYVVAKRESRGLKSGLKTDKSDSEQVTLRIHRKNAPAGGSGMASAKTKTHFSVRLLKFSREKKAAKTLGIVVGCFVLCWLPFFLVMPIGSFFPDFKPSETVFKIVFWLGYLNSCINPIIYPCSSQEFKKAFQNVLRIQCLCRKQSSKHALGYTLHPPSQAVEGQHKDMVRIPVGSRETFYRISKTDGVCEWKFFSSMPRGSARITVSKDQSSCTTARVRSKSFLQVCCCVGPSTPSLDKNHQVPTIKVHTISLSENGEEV

human α1B‐adrenoceptor [6] = target: T2, human α1B‐adrenoceptor (Homo sapiens, UniProt P35368); test: ^3H‐cAMP accumulation, CHO‐α1B cells; format: cell-based; details: CHO‐α1B cells
T2 construct: expressed in transfected cells; host or cells: CHO-K1
T2 sequence (P35368 1-520): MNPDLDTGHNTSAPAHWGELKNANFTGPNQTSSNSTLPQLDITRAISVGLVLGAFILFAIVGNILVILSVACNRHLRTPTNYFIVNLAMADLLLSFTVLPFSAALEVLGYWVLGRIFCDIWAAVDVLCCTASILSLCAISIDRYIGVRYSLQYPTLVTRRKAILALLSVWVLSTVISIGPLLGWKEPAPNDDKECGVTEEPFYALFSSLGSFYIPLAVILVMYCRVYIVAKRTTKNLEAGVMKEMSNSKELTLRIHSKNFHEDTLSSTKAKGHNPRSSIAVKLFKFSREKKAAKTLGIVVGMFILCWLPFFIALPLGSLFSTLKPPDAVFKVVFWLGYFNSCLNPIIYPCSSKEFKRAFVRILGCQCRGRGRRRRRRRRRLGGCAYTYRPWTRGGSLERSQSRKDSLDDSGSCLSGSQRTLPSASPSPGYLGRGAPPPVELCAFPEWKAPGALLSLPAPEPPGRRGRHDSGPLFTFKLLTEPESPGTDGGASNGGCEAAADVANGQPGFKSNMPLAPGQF

human α1A‐adrenoceptor [7] = target: T1, human α1A‐adrenoceptor; test: ^3H‐cAMP accumulation in the presence of 10 μM forskolin, CHO‐α1A cells; format: cell-based; details: CHO‐α1A cells
human α1B‐adrenoceptor [8] = target: T2, human α1B‐adrenoceptor; test: ^3H‐prazosin whole‐cell radioligand binding, CHO‐α1B cells
[9] = target: T3, human α1D‐adrenoceptor (full length) (Homo sapiens, UniProt P25100); test: ^3H‐prazosin whole‐cell radioligand binding, CHO‐α1D cells
T3 construct: human α1D‐adrenoceptor (full length) were used; expressed in transfected cells; host or cells: CHO-K1
T3 sequence (P25100 1-572): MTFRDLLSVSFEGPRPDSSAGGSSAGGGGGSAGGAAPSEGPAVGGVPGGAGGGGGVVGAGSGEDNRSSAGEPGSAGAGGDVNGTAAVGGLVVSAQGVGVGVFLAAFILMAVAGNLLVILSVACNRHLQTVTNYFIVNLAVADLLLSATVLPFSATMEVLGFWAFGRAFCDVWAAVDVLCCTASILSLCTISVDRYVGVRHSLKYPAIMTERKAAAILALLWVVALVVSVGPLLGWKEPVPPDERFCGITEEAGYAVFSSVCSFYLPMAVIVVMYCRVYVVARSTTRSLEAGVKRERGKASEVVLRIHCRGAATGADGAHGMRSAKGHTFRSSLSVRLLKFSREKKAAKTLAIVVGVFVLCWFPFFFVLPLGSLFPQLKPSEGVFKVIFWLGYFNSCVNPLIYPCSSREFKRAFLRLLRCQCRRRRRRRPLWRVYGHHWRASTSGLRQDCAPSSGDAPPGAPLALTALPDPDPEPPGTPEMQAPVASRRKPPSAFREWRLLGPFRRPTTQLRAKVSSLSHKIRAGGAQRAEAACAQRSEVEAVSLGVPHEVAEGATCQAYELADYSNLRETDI

human α1A‐adrenoceptor [10] = target: T1, human α1A‐adrenoceptor; test: ERK1/2‐phosphorylation (Surefire Alphascreen), CHO‐α1A cells; format: cell-based
[11] = target: T3, human α1D‐adrenoceptor (full length); test: ^3H‐cAMP accumulation, CHO‐α1D cells; format: cell-based; details: cAMP accumulation without forskolin
human α1A‐adrenoceptor [12] = target: T1, human α1A‐adrenoceptor; test: Intracellular free calcium mobilization, CHO‐α1A cells; format: cell-based
human α1B‐adrenoceptor [13] = target: T2, human α1B‐adrenoceptor; test: ERK1/2‐phosphorylation (Surefire Alphascreen), CHO‐α1B cells; format: cell-based
human α1A‐adrenoceptor [14] = target: T1, human α1A‐adrenoceptor; test: ^3H‐cAMP accumulation, CHO‐α1A cells; format: cell-based; details: CHO‐α1A cells
[15] = target: T3, human α1D‐adrenoceptor (full length); test: ERK1/2‐phosphorylation (Surefire Alphascreen), CHO‐α1D cells; format: cell-based
human α1B‐adrenoceptor [16] = target: T2, human α1B‐adrenoceptor; test: Intracellular free calcium mobilization, CHO‐α1B cells; format: cell-based
[17] = target: T3, human α1D‐adrenoceptor (full length); test: ^3H‐cAMP accumulation in the presence of 10 μM forskolin, CHO‐α1D cells; format: cell-based; details: CHO‐α1D cells
human α1B‐adrenoceptor [18] = target: T2, human α1B‐adrenoceptor; test: ^3H‐cAMP accumulation in the presence of 10 μM forskolin, CHO‐α1B cells; format: cell-based; details: CHO‐α1B cells
[19] = target: T3, human α1D‐adrenoceptor (full length); test: Intracellular free calcium mobilization, CHO‐α1D cells; format: cell-based
[20] = fold increase of the forskolin response
[21] = read-out: ERK1/2‐phosphorylation Log EC50 (converted)
[22] = read-out: Intracellular calcium release Log EC50 (converted)

Structure (SMILES): COc1ccccc1N1CCN(CC2CN3C(=O)N(C)c4ccccc4C3=N2)CC1 (stereo not shown) [2-MPMDQ]
- ERK1/2-phosphorylation % PDBu [1]: No response
- Intracellular calcium release % ionomycin [2]: No response
- cAMP accumulation (in presence of forskolin) % forskolin-stim cAMP [3]: No response
- cAMP accumulation (in presence of forskolin) Log EC50 [3]: No response
- cAMP accumulation % forskolin [4]: No response

Structure (SMILES): Cc1cccc([C@H](C)c2cnc[nH]2)c1C [Dexmedetomidine]
- Affinity selectivity ratio α1A vs α1B (human α1A‐adrenoceptor [5]): 6.9 fold
- Kd (human α1A‐adrenoceptor [5]; Log KD α1A, ^3H‐prazosin whole cell binding): 1.32 µM
- cAMP accumulation % forskolin (human α1B‐adrenoceptor [6]; % forskolin maximum response): 3.7 ± 0.6%
- EC50 (human α1B‐adrenoceptor [6]; read-out: cAMP accumulation Log EC50 (converted)): 0.0891 µM
- EC50 (human α1A‐adrenoceptor [7]; 10 μM forskolin, read-out: cAMP accumulation (in presence of forskolin) Log EC50 (converted)): 0.0851 µM
- cAMP accumulation (in presence of forskolin) Fold increase (human α1A‐adrenoceptor [7]; [20]): 2.13 ± 0.09 fold
- Kd (human α1B‐adrenoceptor [8]; Log KD α1B, ^3H‐prazosin whole cell binding): 9.12 µM
- Kd (human α1B‐adrenoceptor [8]; Log KD, ^3H‐prazosin binding): 9.12 µM
- Affinity selectivity ratio α1A vs α1D [9]: 1.3 fold
- Affinity selectivity ratio α1B vs α1D [9]: 9.3 fold
- Kd ([9]; 3H‐prazosin binding Log KD): 1.23 µM
- Kd ([9]; Log KD α1D, ^3H‐prazosin whole cell binding): 1.23 µM
- Emax at 100 µM ([1]; Cricetulus griseus, CHO, read-out: ERK1/2-phosphorylation % PDBu at 100μM): 5.8 ± 2.2%
- ERK1/2‐phosphorylation % PDBu (human α1A‐adrenoceptor [10]): 81.7 ± 4.4%
- EC50 (human α1A‐adrenoceptor [10]; [21]): 0.0138 µM
- Emax ([2]; Cricetulus griseus, CHO cells without transfected receptors, response at maximum concentration used (c2), as % of ionomycin (10μM) response, mean ± s.e.m., read-out: Intracellular calcium release % ionomycin): 6.3 ± 4.8%
- cAMP Log EC50 [11]: No response
- Intracellular calcium release % ionomycin (human α1A‐adrenoceptor [12]): 57.3 ± 2.8%
- Log efficacy ratio KD /EC50 (human α1A‐adrenoceptor [12]): 1.91
- EC50 (human α1A‐adrenoceptor [12]; [22]): 0.0162 µM
- ERK1/2‐phosphorylation % PDBu (human α1B‐adrenoceptor [13]): 55.4 ± 7.4%
- EC50 (human α1B‐adrenoceptor [13]; [21]): 0.132 µM
- EC50 (human α1A‐adrenoceptor [14]; 5 h, read-out: cAMP accumulation Log EC50 (converted)): 0.513 µM
- cAMP accumulation % forskolin (human α1A‐adrenoceptor [14]; % of 10 µM forskolin response): 57.6 ± 5.7%
- ERK1/2‐phosphorylation % PDBu at 100 µM [15]: 19.7 ± 3.3%
- Intracellular calcium release % ionomycin (human α1B‐adrenoceptor [16]): 43.6 ± 2.1%
- Log efficacy ratio KD /EC50 (human α1B‐adrenoceptor [16]): 2.29
- EC50 (human α1B‐adrenoceptor [16]; [22]): 0.0468 µM
- cAMP (in presence of forskolin) Fold increase [17, 20]: No response
- cAMP (in presence of forskolin) Log EC50 ([17]; in presence of forskolin, log values given negative): No response
- cAMP accumulation (in presence of forskolin) % forskolin-stim cAMP at 100μM ([3]; CHO cells without transfected receptors, response at 100μM only, EC50 not obtainable, % of forskolin-stimulated cAMP): 84.4 ± 4.7%
- cAMP accumulation (in presence of forskolin) Fold increase (human α1B‐adrenoceptor [18]; [20]): 1.60 ± 0.07 fold
- EC50 (human α1B‐adrenoceptor [18]; in presence of forskolin, read-out: cAMP accumulation (in presence of forskolin) Log EC50 (converted)): 0.0331 µM
- Intracellular calcium release % Ionomycin at 100 µM [19]: 13.1 ± 1.7%

Structure (SMILES): C=C[C@@]1(C)CC(=O)[C@]2(O)[C@@]3(C)[C@@H](O)CCC(C)(C)[C@@H]3[C@H](O)[C@H](OC(C)=O)[C@@]2(C)O1 [forskolin]
- cAMP accumulation response fold over basal ([4]; parent CHO cells, 10μM, n=6): 39.5 ± 3.2 fold over basal
